How the values were obtained:
[1] = system: LOX-IMVI desmoplastic melanoma xenograft; test: LOX-IMVI desmoplastic melanoma cell line based xenograft model; format: in vivo, nude mice; settings: doxorubicin alone 5 mg/kg q7d
From the text: The in vivo antitumor efficacy of the bispecific antibody DR5-FAP (DR5 binder: VH SEQ ID NO.:7, VL SEQ ID NO.: 8, FAP binder: VH SEQ ID NO.:15, VL SEQ ID NO.: 16) could be detected in cell and fragment based patient derived (PDX) models of various tumor origin (e.g. CRC, pancreatic cancer, desmoplastic melanoma and sarcoma) transplanted on nude mice. As example data for combination efficacy of bispecific antibody DR5-FAP (DR5 binder: VH SEQ ID NO.:7, VL SEQ ID NO.: 8, FAP binder: VH SEQ ID NO.:15, VL SEQ ID NO.: 16) and chemotherapeutics that activate the intrinsic apoptosis pathway are shown for the CRC xenograft model DLD-1 and HCT116 (cell line based, co-injection model) and Co5896 (fragment based).
The bispecific antibody DR5-FAP (DR5 binder: VH SEQ ID NO.:7, VL SEQ ID NO.: 8, FAP binder: VH SEQ ID NO.:15, VL SEQ ID NO.: 16) was provided as stock solution from Roche, Penzberg, Germany. Antibody buffer included histidine. Antibody solution was diluted appropriately in buffer from stock prior injections. An Fc mutant of the prior art DR5 specific antibody Drozitumab was provided as stock solution from Roche, Penzberg, Germany. This antibody comprises three amino acid substitutions in the Fc domain that abolish binding to an activating or inhibitory Fc receptor and/or effector function wherein said amino acid substitutions are L234A, L235A and P329G. […]

Aspc1 = test: Combination screen PDAC cell lines (CellTiter-Glo); format: cell-based; settings: Aspc1
Experimental: (§1) A panel of CRC and PDAC cell lines was assessed and combination partners of potential clinical relevance for the respective tumor indications were used for evaluation of combination effects (CRC: irinotecan, oxaliplatin, 5-FU, MDM2 inhibitor (RG7388), Bcl-2 inhibitor (ABT199); PDAC: Abraxane, Paclitaxel, Gemcitabine, Doxorubicin, MDM2i (RG7388), Bc12i (ABT199), Bortezomib, Cyclopamine, PARP inhibitor (PJ34)).
(§2) Cells were seeded (numbers vary depending on the cell line) in black 96-well microplate with clear, flat bottom and incubated overnight at 37° C. and 5% CO2. After checking the adherence/confluence of cells, the medium was removed and 100 μl of fresh medium containing the corresponding compound was added to each well. A sequential dilution series (1:4) of 8 concentrations per compound (n=3) were used. Corresponding DMSO concentration and media alone were used as controls.
(§3) After incubation for 3 days at 37° C. and 5% CO2, 100 μl per well CellTiter-Glo reagent (Promega) was added to the plate. Luminescence was measured after 30 minutes agitation at room temperature. IC50-values were calculated with XL-Fit software. Each experiment with one compound was repeated at least twice.
(§4) Cells were seeded (numbers vary depending on the cell line) in black 96-well microplate with clear, flat bottom and incubated overnight at 37° C. and 5% CO2. After checking the adherence/confluence of cells, the medium was removed and 100 μl of fresh medium containing the corresponding compound or combination was added to each well.
(§5) A sequential 1:3 dilution series of 9 concentrations of Drozitumab/anti-human-Fc was done on a 96-well PP-V-bottom microplate (n=6). […] 25 μl/well of the Drozitumab/anti-human-Fc series were then transferred to the cells.
(§6) After incubation for 3 days at 37° C. and 5% CO2 100 μl per well CellTiter-Glo reagent (Promega) were given to the plates. Luminescence was measured after 30 minutes agitation at room temperature.
(§7) For each concentration of Drozitumab/anti-human-Fc and Drozitumab/anti-human-Fc+compound triplicates were done on the same plate and each experiment was repeated at least twice.

Panc1 = test: Combination screen PDAC cell lines (CellTiter-Glo); format: cell-based; settings: Panc1
Experimental: as §1, §2, §3, §4, §5, §6, §7

Bxpc3 = test: Combination screen PDAC cell lines (CellTiter-Glo); format: cell-based; settings: Bxpc3
Experimental: as §1, §2, §3, §4, §5, §6, §7

Capan2 = test: Combination screen PDAC cell lines (CellTiter-Glo); format: cell-based; settings: Capan2
Experimental: as §1, §2, §3, §4, §5, §6, §7

[2] = system: Sarc4605 sarcoma xenograft; test: Sarc4605 sarcoma fragment based patient derived xenograft model (PDX); format: in vivo, nude mice; settings: doxorubicin alone 5 mg/kg q7d
[3] = second figure of mono/combo, n.s. = not significant

COc1cccc2c1C(=O)c1c(O)c3c(c(O)c1C2=O)C[C@@](O)(C(=O)CO)C[C@@H]3O[C@H]1C[C@H](N)[C@H](O)[C@H](C)O1 [Doxorubicin, (7S,9S)-7-[(2R,4S,5S,6S)-4-amino-5-hydroxy-6-methyloxan-2-yl]oxy-6,9,11-trihydroxy-9-(2-hydroxyacetyl)-4-methoxy-8,10-dihydro-7H-tetracene-5,12-dione]
tumor growth inhibition [1]: 77% | Fold change IC50 (DR5 ab mono vs combo) (Aspc1; n.s. = not significant): 5 | % max. inhibition (combo) (Aspc1; [3]): n.s. | IC50 (Aspc1; Homo sapiens, 72 h, agent alone, 3 days, read-out: IC50 monotherapy): 0.3 µM | IC50 (Panc1; Homo sapiens, PANC-1, 72 h, agent alone, 3 days, read-out: IC50 monotherapy): 0.62 µM | Fold change IC50 (DR5 ab mono vs combo) (Panc1; n.s. = not significant): n.s. | % max. inhibition (combo) (Panc1; [3]): n.s. | % max. inhibition (mono) (Bxpc3; first figure of mono/combo): 25% | Fold change IC50 (DR5 ab mono vs combo) (Bxpc3; n.s. = not significant): 2 | % max. inhibition (combo) (Bxpc3; [3]): 70% | IC50 (Bxpc3; Homo sapiens, BXPC-3, 72 h, agent alone, 3 days, read-out: IC50 monotherapy): 4 µM | % max. inhibition (combo) (Capan2; [3]): n.s. | IC50 (Capan2; Homo sapiens, Capan-2, 72 h, agent alone, 3 days, read-out: IC50 monotherapy): 1.5 µM | tumor growth inhibition [2]: 77%
